Data set [1] has as its system phrenic nerve-hemidiaphragm preparations. Briefly: Antagonism of relaxant-induced neuromuscular block in vitro, rat phrenic nerve-hemidiaphragm. The format is cell-based, male Sprague-Dawley rats. Also noted: ED 50 of Antagonists, In Vitro: unit not given here. Particulars: for Relative Molar Potency, In Vitro: 4-Aminopyridine = 1.0; for ED 50 of Antagonists, In Vitro: means + SEM of 4 experiments, concentration raising twitch tension to 50% of control in >90% steady state block. From the text:
(§1) In in vitro tests to determine neuromuscular potency, phrenic nerve-hemidiaphragm preparations from male Sprague-Dawley rats were suspended in modified Krebs solution. In vivo experiments focused on the sciatic nerve-tibialis anterior muscle preparations in male Sprague-Dawleyrats. In each case, stimulation of nerves was accomplished via bipolar platinum electrodes, with supramaximal impulses of 0.2 msec duration at 0.1 HZ, and the isometric twitches were continuously recorded. Greater than 90 % steady state neuromuscular block was achieved either by addition of appropriate concentrations (in vitro) or continuous i.v. infusions (in vivo) of either d-tubocurarine or pancuronium. Antagonism of the induced neuromuscular block was accomplished by the addition of increments of 4-AP, 3,4-DAP, LF-10 or LF-14.
(§2) **The concentration in vitro or the i.v. dose that will increase twitch
(§3) tension to 50% of control in the presence of the concentration or dose of
(§4) muscle relaxant that caused a >90% steady state block.

For data set [2], the system named is sciatic nerve-tibialis anterior muscle preparations. Briefly: Antagonism of relaxant-induced neuromuscular block in vivo, rat sciatic nerve-tibialis anterior muscle. Particulars: for Relative Molar Potency, In Vivo: 4-Aminopyridine = 1.0; for ED 50 of Antagonists, In Vivo / ED50: i.v., means + SEM of 4 experiments, dose raising twitch tension to 50% of control in >90% steady state block; for ED50: Rattus norvegicus, iv, read-out: ED 50 of Antagonists, In Vivo. Also noted: species or system male Sprague-Dawley rats.
Source text: as §1, §2, §3, §4

The next data set deals with central nervous system. Briefly: Central nervous system stimulatory effects: pentobarbital-induced loss of righting reflex (LRR). Type of data set: in vivo, male Sprague-Dawley rats. Particulars: for Loss of righting reflex, Onset / Loss of righting reflex, Duration: with 35 mg/kg pentobarbital s.c., LF-10, LF-14 1.1 mg/kg, 4-AP, 3,4-DAP 1.5 mg/kg, mean; for Loss of righting reflex, Onset: control 11.4; for Loss of righting reflex, Duration: control 71.9; for effect on pentobarbital induced LRR / barbiturate CNS effects (in words): with pentobarbital 35 mg/kg s.c. How it is done: Tests were conducted to determine the stimulatory effects of the compounds of the present invention upon the central nervous system. Male Sprague-Dawley rats were injected subcutaneously with 35 mg/kg of pentobarbital alone, or together with 1.1 mg/kg of LF-10 or LF-14, or 1.5 mg/kg of 4-AP or 3,4-DAP (Foldes, et al., Anesthesiology 57:A-273, 1982). The time of onset and duration of the loss of righting reflex (LRR) was observed.

The subject of data set [3] is anticholinesterase activity. Particulars: background; cited from earlier work.
A further data set concerns neuromuscular blocks. Particulars: background; Bowman and Savage 1981; Agoston et al. 1978; cited from earlier work.
For data set [4] the following is noted: background; Marshall 1982; cited from earlier work.
The mark [5] stands for this setting: molar basis, nondepolarizing muscle relaxants.
Where [6] appears, read: neuromuscular blocks induced by curare.

Where two headings read alike, the source gives them in different places.

Consider 1,1-dimethyl-(3,4-pyridyl)-urea [LF-10], for which, in data set [1] (muscle relaxant Pancuronium), the “Relative Molar Potency, In Vitro” value was 3.4 and the “ED 50 of Antagonists, In Vitro” value was determined as 0.5. For the same compound, in data set [1] (muscle relaxant d-Tubocurarine), the “Relative Molar Potency, In Vitro” value was found to be 4.3 and the “ED 50 of Antagonists, In Vitro” value came out at 0.4. In data set [2] (muscle relaxant Pancuronium), the “Relative Molar Potency, In Vivo” value stood at 2.3 and the “ED 50 of Antagonists, In Vivo” value is 0.13 + 0.00 mg/Kg. Moreover, in data set [2] (muscle relaxant d-Tubocurarine), the “Relative Molar Potency, In Vivo” value is listed as 7.5 and the “ED 50 of Antagonists, In Vivo” value is 0.09 + 0.00 mg/Kg. In the data set with central nervous system, the “Loss of righting reflex, Onset” value came out at 14.8 min; the “Loss of righting reflex, Duration” value turned out to be 63.7 min; the “effect on pentobarbital induced LRR / barbiturate CNS effects (in words)” value is on record as “some effect on shortening the duration of LRR”.

As to `Nc1ccncc1N` [3,4-Diaminopyridine, 3,4-diaminopyridine, reference compound], in data set [1] (muscle relaxant Pancuronium), the “Relative Molar Potency, In Vitro” value was 2.7. In data set [1] (muscle relaxant d-Tubocurarine), the “Relative Molar Potency, In Vitro” value turned out to be 2.1. In data set [2] (muscle relaxant Pancuronium), the ED50 was found to be 0.18 mg/kg and the “Relative Molar Potency, In Vivo” value worked out at 0.8. In addition, in data set [2] (muscle relaxant d-Tubocurarine), the ED50 came to 0.12 mg/kg and the “Relative Molar Potency, In Vivo” value came out at 1.6. In addition, in the data set on central nervous system, the “Loss of righting reflex, Onset” value is 13.3 min and the “Loss of righting reflex, Duration” value amounted to 78.9 min.

Consider `Nc1ccncc1` [4-Aminopyridine, 4-aminopyridine, reference compound], for which, in data set [2] (muscle relaxant Pancuronium), the ED50 amounted to 0.13 mg/kg. In addition, the ED50 in data set [2] (muscle relaxant d-Tubocurarine) turned out to be 0.17 mg/kg. For the same compound, in the data set on central nervous system, the “Loss of righting reflex, Onset” value was 15.2 min; the “Loss of righting reflex, Duration” value was 42.0 min; the “effect on pentobarbital induced LRR / barbiturate CNS effects (in words)” value was “significantly (p<0.001) reduce the central nervous system effects of barbiturates”. For the same compound, the “anticholinesterase activity (in words)” value in data set [3] is “no anticholinesterase activity”. Besides, in the data set on neuromuscular blocks, the “reversal of muscle relaxants and antagonism of other neuromuscular blocks (in words)” value was “not only reverse the side effects of clinically used muscule relaxants, but also antagonize the effects of the other neuromuscular blocks listed above”. Moreover, the “undesirable side effects (in words)” value in data set [4] is “elevated blood pressure, anxiety, insomnia, and a level of central nervous system stimulation which may manifest itself ultimately in convulsions”.

Consider `CN(C)C(=O)Nc1cnccc1N` [LF-14, 1,1-Dimethyl-3-(4-amino-3-pyridyl)-urea], for which the “neuromuscular potency / antagonism (in words), in vitro” value in data set [1] (setting [5]) was “greatest both in vitro and in vivo”. Besides, in data set [1] (muscle relaxant Pancuronium), the “Relative Molar Potency, In Vitro” value is 17. For the same compound, the “Relative Molar Potency, In Vitro” value in data set [1] (muscle relaxant d-Tubocurarine) was found to be 17. Moreover, the “molar potency relative to 4-AP, in vitro” value in data set [1] (setting [6]) was 17 times that of 4-AP. In data set [2] (muscle relaxant Pancuronium), the ED50 is 0.04 mg/kg and the “Relative Molar Potency, In Vivo” value was 8.2. In addition, in data set [2] (muscle relaxant d-Tubocurarine), the ED50 stood at 0.04 mg/kg and the “Relative Molar Potency, In Vivo” value was determined as 9. The “neuromuscular potency / antagonism (in words), in vivo” value in data set [2] (setting [5]) was “greatest both in vitro and in vivo”. For the same compound, the “molar potency relative to 4-AP, in vivo” value in data set [2] (setting [6]) is given as 9 times that of 4-AP. In addition, in the data set on central nervous system (rat, in vivo), the “stimulatory effects on the central nervous system (in words)” value is on record as “no stimulatory effects on the central nervous system”. For the same compound, in the data set with central nervous system, the “Loss of righting reflex, Onset” value turned out to be 12.4 min; the “Loss of righting reflex, Duration” value turned out to be 75.7 min; the “effect on pentobarbital induced LRR / barbiturate CNS effects (in words)” value was “substantially no effect on the pentobarbital induced LRR”.

Source of the values: patent publication US4734275A, “Anti-curare agents” (priority 1986, dated 1988).
